Laboratory results taken from ChEMBL document CHEMBL4229402, “Kava analogues as agents for treatment of periodontal diseases: Synthesis and initial biological evaluation” (Bioorg Med Chem Lett, 2018).
The source made the active and inactive calls. The rule behind the calls is not given here.

Tests used:
[1] = system: BMDM; assay: Antiperiodontic activity in mouse bone marrow macrophages assessed as reduction in Porphyromonas gingivalis-induced TNFalpha levels at 20 to 100 ug/ml after 4 hrs by ELISA; type: functional
[2] = system: BMDM; assay: Antiperiodontic activity in mouse bone marrow macrophages assessed as reduction in Porphyromonas gingivalis-induced TNFalpha levels at 100 ug/ml after 4 hrs by ELISA; type: functional

| SMILES | Activity [1] | Activity [2] |
| --- | --- | --- |
| CCOC(=O)C1C(=O)C=C(OC(=O)c2ccccc2)CC1(C)C (configuration not stated) | Active |  |
| COC1=CC(=O)O[C@@H](/C=C/c2ccccc2)C1 |  | Active |
